Activity calls are given as the source filed them. Cut-off read from the data, not from the text of the source, for most assays here: actives have a measured EC50 and inactives only a lower limit.
Key:
[1] = biological target: FAD-linked sulfhydryl oxidase ALR (Homo sapiens, UniProt P55789); experiment: ALR-catalysed DTT oxidation blockers – biochemical, H2O2 detection, luminescence, cherry-pick, dose response (AID 493248)
[2] = biological target: T1, Heat shock factor protein 1 (Mus musculus, UniProt P38532); experiment: enhancement of HSF1-driven luciferase signal – cell-based, NIH3T3, luminescence, dose retest, confirmation (AID 435004); assay type: functional;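 note: stress induced by proteasome inhibitor MG132 added 30 min after compound; luciferase reporter driven by HSF1 response element in NIH3T3 cells; actives raise luminescence as potentiators of the MG132 stress response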
T1 sequence (P38532 whole entry): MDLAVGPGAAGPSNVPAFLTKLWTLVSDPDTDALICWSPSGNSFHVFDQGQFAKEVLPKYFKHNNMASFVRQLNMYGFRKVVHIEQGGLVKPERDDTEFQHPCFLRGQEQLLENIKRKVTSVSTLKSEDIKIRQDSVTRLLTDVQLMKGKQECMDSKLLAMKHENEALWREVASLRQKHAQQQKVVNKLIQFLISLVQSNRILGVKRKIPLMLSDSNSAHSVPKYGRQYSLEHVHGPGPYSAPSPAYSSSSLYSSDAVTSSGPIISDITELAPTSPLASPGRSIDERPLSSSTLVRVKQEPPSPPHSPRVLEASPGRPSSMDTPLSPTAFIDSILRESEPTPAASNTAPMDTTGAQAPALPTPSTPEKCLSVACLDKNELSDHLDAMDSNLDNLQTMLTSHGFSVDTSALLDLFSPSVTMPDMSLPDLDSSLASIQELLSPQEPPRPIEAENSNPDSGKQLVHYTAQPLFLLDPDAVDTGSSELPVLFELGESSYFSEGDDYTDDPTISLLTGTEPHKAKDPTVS

[3] = biological target: T2, Replicative DNA helicase DnaB (Mycobacterium tuberculosis, UniProt P9WMR3); experiment: DnaB intein splicing inhibitors, dose response, biochemical, cell-free fluorescence (AID 449749); assay type: functional
T2 sequence (P9WMR3 whole entry): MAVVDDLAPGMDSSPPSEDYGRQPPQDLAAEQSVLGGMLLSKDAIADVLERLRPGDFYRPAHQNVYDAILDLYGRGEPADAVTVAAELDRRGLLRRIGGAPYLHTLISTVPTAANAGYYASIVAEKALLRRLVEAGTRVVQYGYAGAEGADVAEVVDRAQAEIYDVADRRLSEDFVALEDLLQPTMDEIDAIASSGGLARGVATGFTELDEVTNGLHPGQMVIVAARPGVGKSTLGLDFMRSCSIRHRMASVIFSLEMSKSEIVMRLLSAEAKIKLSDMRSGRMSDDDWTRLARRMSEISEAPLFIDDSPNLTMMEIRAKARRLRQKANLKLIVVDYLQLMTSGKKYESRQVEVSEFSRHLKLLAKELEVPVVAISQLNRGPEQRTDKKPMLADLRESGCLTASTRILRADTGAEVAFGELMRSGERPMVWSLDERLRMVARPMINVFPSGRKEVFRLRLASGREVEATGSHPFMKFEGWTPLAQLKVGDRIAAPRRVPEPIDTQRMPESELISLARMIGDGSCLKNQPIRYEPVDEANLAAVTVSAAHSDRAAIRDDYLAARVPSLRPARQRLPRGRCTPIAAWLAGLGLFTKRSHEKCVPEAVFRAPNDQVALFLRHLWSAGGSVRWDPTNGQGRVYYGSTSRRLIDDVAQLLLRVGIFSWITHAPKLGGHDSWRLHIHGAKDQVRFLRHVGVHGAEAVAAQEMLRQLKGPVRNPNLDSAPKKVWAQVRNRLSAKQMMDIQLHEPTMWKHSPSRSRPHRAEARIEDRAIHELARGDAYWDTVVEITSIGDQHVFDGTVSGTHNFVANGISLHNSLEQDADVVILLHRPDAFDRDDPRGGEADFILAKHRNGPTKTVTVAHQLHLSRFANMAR

Protein RecA = biological target: T3, Protein RecA (Mycobacterium tuberculosis, UniProt P9WHJ3); experiment: Fluorescence Cell-Free Homogeneous Dose Retest to Identify Inhibitors of RecA-Intein Splicing Activity. [Related pubchem assays (depositor defined):AID2097, AID2223, AID489010, AID492950]; assay type: functional
T3 sequence (P9WHJ3 whole entry): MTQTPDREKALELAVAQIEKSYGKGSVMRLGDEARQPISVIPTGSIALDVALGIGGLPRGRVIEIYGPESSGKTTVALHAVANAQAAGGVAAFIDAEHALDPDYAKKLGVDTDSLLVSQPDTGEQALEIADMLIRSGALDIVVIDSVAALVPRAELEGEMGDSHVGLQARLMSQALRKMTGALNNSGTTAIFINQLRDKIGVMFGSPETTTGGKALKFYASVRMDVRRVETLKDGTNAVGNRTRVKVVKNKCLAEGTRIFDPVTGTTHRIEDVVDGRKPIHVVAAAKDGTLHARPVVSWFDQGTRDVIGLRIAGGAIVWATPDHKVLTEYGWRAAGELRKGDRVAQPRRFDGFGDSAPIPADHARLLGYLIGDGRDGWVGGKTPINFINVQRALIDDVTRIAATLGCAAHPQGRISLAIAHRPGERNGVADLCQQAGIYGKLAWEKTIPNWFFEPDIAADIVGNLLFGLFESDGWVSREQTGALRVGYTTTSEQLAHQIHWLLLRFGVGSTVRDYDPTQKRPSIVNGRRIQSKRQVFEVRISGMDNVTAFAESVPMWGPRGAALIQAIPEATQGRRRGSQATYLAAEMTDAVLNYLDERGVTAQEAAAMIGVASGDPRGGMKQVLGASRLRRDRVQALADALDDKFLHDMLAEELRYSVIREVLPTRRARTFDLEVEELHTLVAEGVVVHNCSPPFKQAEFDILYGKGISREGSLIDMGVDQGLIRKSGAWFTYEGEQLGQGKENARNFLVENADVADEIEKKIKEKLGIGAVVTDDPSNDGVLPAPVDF

[4] = Trypanosoma cruzi growth suppression in host cells – NIH3T3 host cells, beta-gal luminescence, confirmation (AID 2044); assay type: functional, cell-based;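 note: intracellular parasites grown in NIH/3T3 mouse fibroblasts as host cells; luminescent beta-galactosidase reporter signal from transgenic T. cruzi replicating inside host cells; inhibitors lower the luminescence signal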
[5] = NIH3T3 cell viability loss – ATP luminescence, mouse fibroblasts, counter-screen, dose response (AID 2010); assay type: functional, cell-based;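 note: cells exposed to compound for about 90 hours before reading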
H9c2 = experiment: cells; assay type: functional, cell-based; details: Rattus norvegicus, H9c2, Myocardium;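 note: confirmatory concentration-response retest of ultra-high-throughput screening hits for modulation of myocardial damage; cell death induced by hydrogen peroxide oxidative stress; compound pretreatment for 60 min then peroxide exposure for 2 h; potency is for protecting the cells against peroxide damage rather than for killing them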
[6] = reduction of Shn3 3'UTR-driven luciferase in osteoblasts – cell-based, Clone20 osteoblasts, firefly luciferase, cherry-picked, dose response (AID 624132); assay type: functional;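 note: firefly luciferase luminescence from reporter carrying the Shn3 3'UTR in osteoblasts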
[7] = biological target: T4, RNA-binding protein pos-1 (Caenorhabditis elegans, UniProt G5EF15); experiment: disruptors of C. elegans POS-1 RNA interaction – biochemical, fluorescence polarization, dose response (AID 1964);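 note: purified POS-1 fused to maltose binding protein made in E. coli; potency of compounds blocking POS-1 binding to fluorescent RNA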
T4 sequence (G5EF15 whole entry): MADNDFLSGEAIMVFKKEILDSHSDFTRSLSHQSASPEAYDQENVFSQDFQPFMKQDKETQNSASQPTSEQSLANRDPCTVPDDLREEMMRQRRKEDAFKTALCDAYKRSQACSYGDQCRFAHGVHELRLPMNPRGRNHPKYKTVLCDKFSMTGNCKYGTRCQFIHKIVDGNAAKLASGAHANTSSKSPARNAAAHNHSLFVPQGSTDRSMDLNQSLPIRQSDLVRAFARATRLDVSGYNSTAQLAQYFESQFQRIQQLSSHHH

[8] = biological target: T5, Zinc finger protein mex-5 (Caenorhabditis elegans, UniProt Q9XUB2); experiment: potency of MEX-5 RNA-binding blockers – biochemical, C. elegans, fluorescence polarization, dose response (AID 1960)
T5 sequence (Q9XUB2 whole entry): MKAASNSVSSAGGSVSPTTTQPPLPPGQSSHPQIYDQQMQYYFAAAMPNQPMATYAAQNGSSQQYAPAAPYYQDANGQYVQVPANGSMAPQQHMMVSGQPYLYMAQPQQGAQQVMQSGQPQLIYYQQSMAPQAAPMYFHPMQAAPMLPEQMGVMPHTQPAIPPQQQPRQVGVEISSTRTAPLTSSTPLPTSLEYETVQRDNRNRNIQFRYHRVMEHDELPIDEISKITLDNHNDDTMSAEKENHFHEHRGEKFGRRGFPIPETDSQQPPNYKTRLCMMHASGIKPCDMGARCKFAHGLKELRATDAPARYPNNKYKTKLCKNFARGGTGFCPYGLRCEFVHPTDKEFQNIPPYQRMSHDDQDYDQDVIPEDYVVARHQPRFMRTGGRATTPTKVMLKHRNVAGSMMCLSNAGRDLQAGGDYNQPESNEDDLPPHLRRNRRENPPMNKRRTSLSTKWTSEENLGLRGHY

Sequence of FAD-linked sulfhydryl oxidase ALR (P55789 whole entry): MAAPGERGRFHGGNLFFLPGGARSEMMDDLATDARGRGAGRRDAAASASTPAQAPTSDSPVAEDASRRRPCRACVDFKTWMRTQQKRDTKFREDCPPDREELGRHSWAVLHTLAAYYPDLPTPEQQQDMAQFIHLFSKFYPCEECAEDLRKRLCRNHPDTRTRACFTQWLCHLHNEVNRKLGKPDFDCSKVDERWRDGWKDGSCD

Cc1ccccc1NS(=O)(=O)c1cccc2nonc12
AC50 [1]: 8.51 µM (active)

COc1cc(NC(=O)COC(=O)c2ccc(C)c(S(=O)(=O)N3CCCCC3)c2)c(C)cc1[N+](=O)[O-]
EC50 [2]: > 260 µM (inactive)

CCOC(=O)c1nnc(-c2cccs2)nc1Oc1ccc(Cl)cc1
AC50 [3]: 24.5 µM (active)
EC50 (Protein RecA): 16.5 µM (active)

Cn1c(S)nnc1CCNC(=O)c1ccc(Cl)cc1
AC50 [1]: 1.54 µM (active)

Cc1cccc(N2CCN(c3cccc(C)c3)C2c2cccnc2)c1
EC50 [4]: 0.165 µM (active)
EC50 [5]: 4.39 µM (active)
EC50 [2]: > 260 µM (inactive)

O=C(Nc1ccccc1)C1Cc2ccccc2CN1C(=O)c1ccco1 (stereo unspecified)
AC50 [1]: 12.9 µM (active)

NC(=O)c1nn(-c2ccccc2)nc1NC(=O)CN1CCCCC1
EC50 [2]: > 260 µM (inactive)

Cc1ccc(S(=O)(=O)NCC2CCC(C(=O)NCCCN3CCOCC3)CC2)cc1 (stereo unspecified)
AC50 [3]: > 380 µM (inactive)
EC50 (Protein RecA): > 380 µM (inactive)

Cc1ccc(C(=O)C(OC(=O)CN2C(=O)c3ccccc3C2=O)c2ccccc2)cc1C (stereo unspecified)
AC50 [3]: 66.8 µM (active)
EC50 (Protein RecA): > 380 µM (inactive)

O=C(O)CN1C(=O)/C(=C\c2cccc(OC(=O)c3ccco3)c2)SC1=S
AC50 [3]: 29.5 µM (active)
EC50 (Protein RecA): 22.6 µM (active)

CCOC(=O)C1CCN(c2cc3c(cc2NC(=O)c2ccccc2Br)n(C)c(=O)n3C)CC1
IC50 (H9c2): 67.2 µM (inactive)
AC50 [6]: 21.3 µM (active)

CCCCCCOc1ccc(C(=O)n2cnc(N)n2)cc1
AC50 [3]: 21.6 µM (active)
EC50 (Protein RecA): 1.46 µM (active)

CN1CCC(=NNc2ccc(S(=O)(=O)N3CCOCC3)cc2[N+](=O)[O-])CC1
EC50 [2]: > 260 µM (inactive)

O=C(CCl)Nc1cccc(CP(=O)(c2ccccc2)c2ccccc2)c1
AC50 [3]: 93.2 µM (active)
EC50 (Protein RecA): 18.4 µM (active)

Cc1nonc1OCCNCCNc1ccc([N+](=O)[O-])cc1Cl
EC50 [2]: > 260 µM (inactive)

COc1ccc(-c2[nH]nc3c2C(c2ccsc2)C(C#N)=C(N)O3)cc1 (stereo unspecified)
AC50 [3]: 19.2 µM (active)
EC50 (Protein RecA): 13.3 µM (active)

O=C1N=C(c2ccccc2)C(c2ccccc2)N1 (stereo unspecified)
AC50 [1]: 0.318 µM (active)

O=C(O)CCc1ccc(-c2cccs2)n1NC(=O)c1ccccc1Br
AC50 [1]: 6.95 µM (active)

Cc1ccc(-c2nnn[nH]2)cc1
EC50 [2]: > 260 µM (inactive)

O=C(NCC1CCCO1)c1nn2c(C(F)(F)F)cc(-c3cc(Br)cs3)nc2c1Br (stereo unspecified)
EC50 [7]: > 300 µM (not active)
EC50 [8]: > 300 µM (inconclusive)
EC50 [2]: > 260 µM (inactive)

Cc1ccc(Nc2nc(CSc3nnnn3C)cs2)cc1
AC50 [1]: 1.54 µM (active)

COc1ccc(CC(=O)N2CCN=C2SCc2ccc([N+](=O)[O-])cc2)cc1
AC50 [1]: < 0.005 µM (active)

O=C(Nc1cccn(Cc2c(Cl)cccc2Cl)c1=O)c1ccccc1Cl
EC50 [2]: > 260 µM (inactive)

CC(Sc1nc(-c2ccccc2)cc(C(F)(F)F)n1)C(=O)Nc1sc2c(c1C#N)CCC2 (stereo unspecified)
EC50 [4]: 0.137 µM (active)
EC50 [5]: > 60 µM (not active)
EC50 [2]: > 260 µM (inactive)

CN(C)CCNC(=O)C(=O)NCC(c1ccc2c(c1)OCO2)N1CCN(c2ccc(F)cc2)CC1 (stereo unspecified)
AC50 [1]: 0.439 µM (active)

C=CC[C@H](CC(=O)N(CCO)Cc1ccccc1)C(=O)NC[C@H](OC(=O)[C@@H](CC=C)Cc1ccc(F)cc1)c1ccccc1
AC50 [6]: 10.7 µM (active)

N#Cc1ccc(OCCN2CCc3ccccc3C2)cc1
EC50 [2]: > 260 µM (inactive)

Cc1ccc(CC2SC(N=C(N)N)=NC2=O)cc1 (stereo unspecified)
EC50 [2]: > 260 µM (inactive)

CCN(CC)S(=O)(=O)c1cccc(C(=O)N/N=C/c2cc(OC)c(O)c(OC)c2)c1
AC50 [1]: 0.21 µM (active)

Cc1cc(OC(=O)c2ccccc2)n(CCC#N)n1
AC50 [3]: 8.7 µM (active)
EC50 (Protein RecA): 2.67 µM (active)

Cc1onc(-c2c(Cl)cccc2Cl)c1C(=O)N[C@@H]1C(=O)N2[C@@H]1SC(C)(C)[C@@H]2C(=O)O [DICLOXACILLIN SODIUM]
AC50 [6]: 46.7 µM (active)

Source: ChEMBL document CHEMBL1201862, “PubChem BioAssay data set” (2004)
